Experimental data reported in ChEMBL document CHEMBL1201862, “PubChem BioAssay data set” (2004).
Activity calls are given as the source filed them.

How the values were obtained:
[1] = target: Nuclear receptor subfamily 0 group B member 1 (Homo sapiens, UniProt P51843); format: functional, cell-based;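 also: HEK293T cells transfected with SF-1 and DAX-1 plus StAR promoter luciferase reporter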
cells [2] = format: functional, cell-based
Major prion protein = Major prion protein (Homo sapiens, UniProt P04156); format: functional, cell-based
cells [3] = test: cells
cells [4] = format: functional, cell-based; remark: listed apart in the source
cells [5] = format: functional, cell-based; remark: listed apart in the source
[6] = target: T1, Trace amine-associated receptor 1 (Homo sapiens, UniProt Q96RJ0); test: Fluorescence-based cell-based high throughput dose response assay to identify agonists of the human trace amine associated receptor 1 (TAAR1).; format: functional
[7] = target: T1, Trace amine-associated receptor 1; test: Counterscreen for agonists of the human trace amine associated receptor 1 (hTAAR1): Fluorescence-based cell-based high throughput dose response assay to identify hTAAR1 agonist that also desensitize TAAR1 receptor response.; format: functional
BJ [8] = test: BJ-TERT fibroblast viability loss – cell-based, RAS-independent, luminescence, dose response (AID 1933); format: functional; conditions: Homo sapiens
Streptococcus = test: GAS UMAA2166 growth inhibition – luminescence, BacTiterGlo, counter-screen for streptokinase expression inhibitor project, dose response (AID 1915); format: functional, organism-based;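 also: potency for reduction of bacterial viability or growth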
[9] = target: Heat shock protein HSP 90-alpha (Homo sapiens, UniProt P07900); format: functional, organism-based
BJ [10] = test: growth inhibition of engineered Ras-driven BJ cells – cell-based, alamar blue fluorescence, cherrypicked samples, dose response (AID 2631); format: functional; conditions: Homo sapiens;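 also: confirmatory dose-response assay in RAS-dependent BJ fibroblasts engineered with TERT, LT and ST, with cytotoxicity read by fluorescence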
Hexokinase HKDC1 = target: T2, Hexokinase HKDC1 (Homo sapiens, UniProt Q2TB90); test: activation of HKDC1 glucose phosphorylation – biochemical, W721R variant, dose response (AID 504730); format: functional
T2 sequence (Q2TB90 whole entry): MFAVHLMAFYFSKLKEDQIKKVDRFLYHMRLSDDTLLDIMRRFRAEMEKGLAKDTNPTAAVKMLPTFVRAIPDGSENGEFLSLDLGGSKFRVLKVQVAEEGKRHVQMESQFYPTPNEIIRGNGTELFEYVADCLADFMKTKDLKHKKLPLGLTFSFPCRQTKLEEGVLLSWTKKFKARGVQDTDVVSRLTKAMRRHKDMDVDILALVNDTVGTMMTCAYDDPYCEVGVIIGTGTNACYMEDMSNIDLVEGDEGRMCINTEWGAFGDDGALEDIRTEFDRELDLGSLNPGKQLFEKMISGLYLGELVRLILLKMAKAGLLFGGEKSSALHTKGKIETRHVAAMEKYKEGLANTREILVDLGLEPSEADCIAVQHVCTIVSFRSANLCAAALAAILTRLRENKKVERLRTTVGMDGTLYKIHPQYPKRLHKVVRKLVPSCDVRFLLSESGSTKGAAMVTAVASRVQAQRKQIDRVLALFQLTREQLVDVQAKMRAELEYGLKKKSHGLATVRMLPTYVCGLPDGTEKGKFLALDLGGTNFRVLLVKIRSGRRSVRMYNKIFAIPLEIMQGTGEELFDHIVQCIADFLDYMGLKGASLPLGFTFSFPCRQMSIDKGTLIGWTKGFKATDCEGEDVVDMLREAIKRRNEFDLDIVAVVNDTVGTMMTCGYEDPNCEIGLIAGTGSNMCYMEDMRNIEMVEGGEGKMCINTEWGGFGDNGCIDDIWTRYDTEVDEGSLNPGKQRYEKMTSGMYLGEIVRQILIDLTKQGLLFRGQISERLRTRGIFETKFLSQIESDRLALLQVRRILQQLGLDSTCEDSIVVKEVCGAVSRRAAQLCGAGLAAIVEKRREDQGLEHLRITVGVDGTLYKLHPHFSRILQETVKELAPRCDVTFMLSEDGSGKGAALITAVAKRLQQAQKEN

BJ [11] = test: BJ-TERT-LT-ST fibroblast viability loss – cell-based, RAS-independent, luminescence, dose response (AID 1935); format: functional; conditions: Homo sapiens;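 also: BJ fibroblasts immortalized with TERT plus LT and ST oncogenes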
[12] = DRD fibroblast viability loss – cell-based, non-viral oncogenic, luminescence, dose response (AID 1934); format: functional; conditions: Homo sapiens
[13] = test system: Streptococcus sp. 'group A'; test: Streptococcus pyogenes SK(-)GAS viability under kanamycin – luminescence, BacTiterGlo, confirmation, counter-screen for streptokinase expression inhibitor project, dose response (AID 1900); format: functional, organism-based
Vero = test: mammalian cell viability reduction – secondary assay, cytotoxicity control for West Nile virus antiviral project, dose response (AID 1650); format: functional; conditions: Chlorocebus sabaeus
[14] = decrease of insulin promoter-GFP reporter – imaging, high-content screening, mouse beta cells (AID 1628); format: functional; conditions: MIN6
Hexokinase-1 = Hexokinase-1 (Homo sapiens, UniProt P19367); test: HK1 enzyme activation by HKDC1 hits – biochemical, selectivity assay for HKDC1 activator project, dose response (AID 504762); format: functional
Nonstructural protein 1 = Nonstructural protein 1 (Influenza A virus, UniProt Q194T2); format: functional, Influenza A virus (A/California/07/2009(H1N1))
[15] = MIN6 cell viability loss – mouse insulinoma, cytotoxicity control, dose response (AID 2122); format: functional;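 also: confirmatory high-throughput counterscreen run to flag cytotoxic compounds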
[16] = viability loss in HepG2 hepatoma cells – cell-based, ATP luminescence, cherry-pick, activator set 2, cytotoxicity control, dose response (AID 1053143); format: functional
INS1 = test: INS-1E survival protection against cytokine death – cell-based, luminescence, retest, dose response (AID 449756); format: functional; conditions: Rattus norvegicus;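 also: cell death triggered by IL-1 beta plus TNF-alpha plus IFN-gamma mixture; protective hits raise ATP signal compared with cytokine alone wells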
BJ [17] = test: cells; format: functional, cell-based; conditions: Homo sapiens
[18] = target: Botulinum neurotoxin type F (Clostridium botulinum, UniProt P30996); test: High-throughput multiplex microsphere dose response for inhibitors of toxin protease, specifically Botulinum neurotoxin light chain F protease, compounds from Cherry Pick 02.; format: functional; conditions: read-out: EC50_MICROM
[19] = target: Arf-GAP with SH3 domain, ANK repeat and PH domain-containing protein 1 (Homo sapiens, UniProt Q9ULH1); format: functional;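 also: biochemical fluorescence polarization dose–response screen measuring inhibition of ASAP1; ASAP1 GAP domain stimulating GTP hydrolysis by truncated human ARF1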
Genome polyprotein = Genome polyprotein (dengue virus type 2, UniProt P29990); test: flavivirus cap methylation enzyme inhibition – biochemical, confirmation dose response, primary screen (AID 588689); format: functional
Kallikrein-7 = Kallikrein-7 (Homo sapiens, UniProt P49862); test: Fluorescence Intensity-based biochemical primary high throughput dose response assay to identify activators of kallikrein-7 (K7) zymogen.
[20] = optical artefact potency, substrate without enzyme – biochemical, fluorescence intensity, triplicate, artefact control for kallikrein-7 zymogen activator project, dose response (AID 720493)
[21] = HIV-1 AD8 envelope cell-cell fusion blockers – cherry-pick, dose response (AID 652062); format: functional, cell-based;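 also: luciferase signal from cell-cell fusion driven by HIV-1 clade B AD8 Env; potency is for inhibitors of fusion seen as a drop in luminescence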
[22] = viability loss in CEM21 cells – cell-based, CellTiter-Glo luminescence, cherry-picked, cytotoxicity control for viral fusion inhibitor project, dose response (AID 652042); format: functional;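 also: potency for signal decrease meaning cytotoxicity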
[23] = blockers of HIV-1 envelope-mediated cell-cell fusion – cherry-pick, dose response (AID 652057); format: functional, cell-based
SUMO-activating enzyme = SUMO-activating enzyme (Homo sapiens, UniProt Q9UBT2); test: blockers of UBC9-mediated SUMO conjugation – biochemical, AlphaScreen, SUMOylation inhibitor project, confirmation (AID 2018); format: functional
[24] = off-target signal loss in HeLa-CEM21 co-culture – HeLa F-luc CTL cells, cherry-picked, counter-screen for HIV-1 Env fusion inhibitor project, dose response (AID 652040); format: functional, cell-based;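 also: potency for signal decrease marking cytotoxic or nonspecific inhibition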
[25] = blockers of HIV-1 ZM109 envelope-driven cell-cell fusion – HeLa effector, CEM target cells, luciferase, cherry-pick, dose response (AID 652058); format: functional, cell-based;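 also: luciferase signal from HIV-1 Env mediated cell-cell fusion of effector and target cells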
[26] = general mammalian cell viability loss – inhibitor set, cherry-pick, set 2, cytotoxicity control for miR-122 modulator project, dose response (AID 720697); format: functional, cell-based

With O=C(COc1ccccc1)Nc1cccc(-c2ccc(N3CCOCC3)nn2)c1 the IC50 [1] was > 67.5 µM (inactive) and the IC50 (cells [2]) was > 67.5 µM (inactive).
For Cc1ccc(S(=O)(=O)N2CCCCC2)cc1NC(=O)CSc1ncnc2ccccc12, the IC50 (Major prion protein) was 5.6 µM (active) and the IC50 (cells [3]) was > 138 µM (inactive).
In the case of O=C(NCCc1cccs1)C1CC(c2cccc(F)c2)=NO1 (stereo unspecified), the EC50 (cells [4]) is reported as > 29.9 µM (inactive), the IC50 (cells [5]) is reported as > 29.9 µM (inactive) and the EC50 [6] is reported as 13.7 µM (inactive). The IC50 [7] was 2.6 µM (active).
For CC(C)(C)c1nnc(N/N=C/c2cc(Br)ccc2O)n(N)c1=O, the EC50 (BJ [8]) was 0.681 µM (active), the EC50 (Streptococcus) was 3.18 µM (active) and the AC50 [9] was 5.57 µM (active). The EC50 (BJ [10]) was 1.24 µM (active), the EC50 (Hexokinase HKDC1) was 19.9 µM (active) and the EC50 (BJ [11]) was 0.706 µM (inconclusive). The EC50 [12] was 1.01 µM (active), the EC50 [13] was 2.91 µM (active) and the CC50 (Vero) was 5 µM (active). For the same compound, the IC50 [14] was 1.81 µM (active), the EC50 (Hexokinase-1) was > 80 µM (inactive) and the IC50 (Nonstructural protein 1) was 16.6 µM (active). For the same compound, the IC50 [15] was 2.08 µM (active), the AC50 [16] was 5.77 µM (active) and the AC50 (INS1) was 0.859 µM (active). For the same compound, the EC50 (BJ [17]) was 3.69 µM (inconclusive).
In the case of COc1ccccc1Cc1c(-c2ccc(C)cc2)nc2cc(C)c(Br)c(C)n12, the EC50 [18] is reported as > 20 µM (inactive).
In the case of Cc1cc(C)c2nc(N3C(=O)C(O)=C(C(=O)c4ccco4)C3c3cccc(O)c3)sc2c1 (stereo unspecified), the IC50 [19] is reported as 81.8 µM (inactive) and the IC50 (Genome polyprotein) is reported as 32.4 µM (active).
With CCOC(=O)c1c(N)n(CCN2CCCCC2)c2nc3ccccc3nc12 the EC50 (Kallikrein-7) was 3.62 µM (active) and the EC50 [20] was > 2.58 µM (active).
For Cc1ccc(C)c(OCC(=O)Nc2nonc2NC(=O)COc2cc(C)ccc2C)c1, the AC50 [21] was 4.31 µM (active), the AC50 [22] was 25.4 µM (active) and the AC50 [23] was 2.68 µM (active). For the same compound, the IC50 (SUMO-activating enzyme) was 45.4 µM (active), the AC50 [24] was 6.79 µM (active) and the AC50 [25] was 1.4 µM (active).
For COc1cccc(NC(=O)Nc2ccc3c(c2)C(=O)N(C)C[C@@H](OC)[C@@H](C)CN[C@H](C)CO3)c1, the AC50 [26] was 1.49 µM (active).
